# ChEMBL document CHEMBL1136936, “Discovery of N-{N-[(3-cyanophenyl)sulfonyl]-4(R)-cyclobutylamino-(L)-prolyl}-4-[(3',5'-dichloroisonicotinoyl) amino]-(L)-phenylalanine (MK-0668), an extremely potent and orally active antagonist of very late antigen-4” (J Med Chem, 2009)
# What was measured:
# Integrin alpha-4 [1] = molecular target: T1, Integrin alpha-4 (Homo sapiens, UniProt P13612); assay: Displacement of [125I]-(S)-2-((2S,4R)-4-(azetidin-1-yl)-1-(3-iodophenylsulfonyl)pyrrolidine-2-carboxamido)-3-(4-(3,5-dichloroisonicotinamido)phenyl)propanoic acid from VLA4 in human Jurkat cells washed with Hepes buffer by competitive binding assay; type: cell-based
# T1 sequence (P13612 whole entry): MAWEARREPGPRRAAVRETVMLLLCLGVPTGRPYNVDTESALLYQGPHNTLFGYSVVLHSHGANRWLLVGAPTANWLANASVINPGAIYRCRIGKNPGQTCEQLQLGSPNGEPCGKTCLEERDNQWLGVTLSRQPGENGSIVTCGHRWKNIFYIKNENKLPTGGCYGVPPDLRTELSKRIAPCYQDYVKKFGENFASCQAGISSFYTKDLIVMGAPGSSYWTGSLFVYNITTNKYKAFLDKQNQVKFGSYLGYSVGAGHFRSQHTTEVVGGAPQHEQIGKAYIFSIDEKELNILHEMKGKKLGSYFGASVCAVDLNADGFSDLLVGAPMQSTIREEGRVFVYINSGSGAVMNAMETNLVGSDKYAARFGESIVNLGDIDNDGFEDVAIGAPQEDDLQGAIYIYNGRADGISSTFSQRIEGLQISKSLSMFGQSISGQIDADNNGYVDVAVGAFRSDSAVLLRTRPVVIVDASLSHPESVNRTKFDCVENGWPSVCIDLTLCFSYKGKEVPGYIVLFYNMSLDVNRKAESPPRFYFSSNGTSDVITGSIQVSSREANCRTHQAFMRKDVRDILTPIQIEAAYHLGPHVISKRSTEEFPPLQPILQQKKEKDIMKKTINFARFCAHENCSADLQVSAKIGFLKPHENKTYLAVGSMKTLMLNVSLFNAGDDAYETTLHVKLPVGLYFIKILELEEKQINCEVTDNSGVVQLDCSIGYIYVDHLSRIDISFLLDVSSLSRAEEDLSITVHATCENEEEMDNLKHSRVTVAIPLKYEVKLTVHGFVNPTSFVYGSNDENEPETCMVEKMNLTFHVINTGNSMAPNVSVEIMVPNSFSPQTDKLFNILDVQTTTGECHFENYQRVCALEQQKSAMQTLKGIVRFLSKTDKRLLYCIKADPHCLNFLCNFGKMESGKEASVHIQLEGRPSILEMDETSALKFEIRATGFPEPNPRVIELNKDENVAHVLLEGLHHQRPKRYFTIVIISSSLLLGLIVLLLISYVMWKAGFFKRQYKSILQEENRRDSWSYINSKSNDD
# Integrin alpha-4 [2] = molecular target: T1, Integrin alpha-4; assay: Displacement of [125I]-(S)-2-((2S,4R)-4-(azetidin-1-yl)-1-(3-iodophenylsulfonyl)pyrrolidine-2-carboxamido)-3-(4-(3,5-dichloroisonicotinamido)phenyl)propanoic acid from VLA4 in human whole blood by competitive binding assay; type: tissue-based
# [3] = molecular target: Integrin alpha-4 (Homo sapiens) (UniProt P13612); assay: Binding affinity to human VLA4 at 37 degC after 3 hrs; parameters: concentration or dose not given beside the values
# [4] = molecular target: Integrin alpha-4 (Homo sapiens) (UniProt P13612); assay: Binding affinity to human VLA4 at 37 degC after 1 hr
# Canis lupus familiaris = organism: Canis lupus familiaris; assay: Inhibition of dog VLA4
# [5] = molecular target: Integrin alpha-4 (Homo sapiens) (UniProt P13612); assay: Inhibition of human VLA4
# Canis familiaris [6] = assay: Tmin in dog at 5 mg/kg, po; type: ADME, organism-based, Canis lupus familiaris; parameters: dose 5 mg/kg, route oral; conditions: in vivo
# Canis familiaris [7] = assay: Ex vivo receptor occupancy at VLA4 in dog at 5 mg/kg, po after 12 hrs by [125I]- -(S)-2-((2S,4R)-4-(azetidin-1-yl)-1-(3-iodophenylsulfonyl)pyrrolidine-2-carboxamido)-3-(4-(3,5-dichloroisonicotinamido)phenyl)propanoic acid competitive binding assay; type: functional, Canis lupus familiaris
# Rattus norvegicus [8] = assay: Ex vivo receptor occupancy at VLA4 in rat at 5 mg/kg, po after 12 hrs by [125I]- -(S)-2-((2S,4R)-4-(azetidin-1-yl)-1-(3-iodophenylsulfonyl)pyrrolidine-2-carboxamido)-3-(4-(3,5-dichloroisonicotinamido)phenyl)propanoic acid competitive binding assay; type: functional
# Rattus norvegicus [9] = assay: Tmin in rat at 5 mg/kg, po; type: ADME, organism-based; parameters: dose 5 mg/kg, route oral; conditions: in vivo
# Rhesus monkey [10] = assay: Tmin in rhesus monkey at 5 mg/kg, po; type: ADME, organism-based, Macaca mulatta; parameters: dose 5 mg/kg, route oral; conditions: in vivo
# [11] = Half life in rat at 5 mg/kg, po; type: ADME, organism-based; parameters: dose 5 mg/kg, route oral; conditions: in vivo
# [12] = Half life in dog at 5 mg/kg, po; type: ADME, organism-based, Canis lupus familiaris; parameters: dose 5 mg/kg, route oral; conditions: in vivo
# Rattus norvegicus [13] = organism: Rattus norvegicus; assay: Inhibition of rat VLA4
# [14] = Half life in rhesus monkey at 5 mg/kg, po; type: ADME, organism-based, Macaca mulatta; parameters: dose 5 mg/kg, route oral; conditions: in vivo
# [15] = Plasma Clearance in rhesus monkey at 5 mg/kg, po; type: ADME, organism-based, Macaca mulatta; parameters: dose 5 mg/kg, route oral
# Rhesus monkey [16] = assay: Ex vivo receptor occupancy at VLA4 in rhesus monkey at 5 mg/kg, po after 8 hrs by [125I]- -(S)-2-((2S,4R)-4-(azetidin-1-yl)-1-(3-iodophenylsulfonyl)pyrrolidine-2-carboxamido)-3-(4-(3,5-dichloroisonicotinamido)phenyl)propanoic acid competitive binding assay; type: functional, Macaca mulatta
# Liver microsomes [17] = assay: Metabolic stability in human liver microsomes after 1 hr; type: ADME, Microsome
# [18] = Plasma Clearance in dog at 5 mg/kg, po; type: ADME, organism-based, Canis lupus familiaris; parameters: dose 5 mg/kg, route oral
# Liver microsomes [19] = assay: Metabolic stability in rat liver microsomes after 1 hr; type: ADME, Microsome
# Macaca mulatta = organism: Macaca mulatta; assay: Inhibition of rhesus monkey VLA4
# [20] = Plasma Clearance in rat at 5 mg/kg, po; type: ADME, organism-based; parameters: dose 5 mg/kg, route oral
# Cytochrome P450 3A4 = Cytochrome P450 3A4 (Homo sapiens, UniProt P08684); assay: Inhibition of human CYP3A4; type: ADME
# Cytochrome P450 3A4, sequence (P08684 whole entry): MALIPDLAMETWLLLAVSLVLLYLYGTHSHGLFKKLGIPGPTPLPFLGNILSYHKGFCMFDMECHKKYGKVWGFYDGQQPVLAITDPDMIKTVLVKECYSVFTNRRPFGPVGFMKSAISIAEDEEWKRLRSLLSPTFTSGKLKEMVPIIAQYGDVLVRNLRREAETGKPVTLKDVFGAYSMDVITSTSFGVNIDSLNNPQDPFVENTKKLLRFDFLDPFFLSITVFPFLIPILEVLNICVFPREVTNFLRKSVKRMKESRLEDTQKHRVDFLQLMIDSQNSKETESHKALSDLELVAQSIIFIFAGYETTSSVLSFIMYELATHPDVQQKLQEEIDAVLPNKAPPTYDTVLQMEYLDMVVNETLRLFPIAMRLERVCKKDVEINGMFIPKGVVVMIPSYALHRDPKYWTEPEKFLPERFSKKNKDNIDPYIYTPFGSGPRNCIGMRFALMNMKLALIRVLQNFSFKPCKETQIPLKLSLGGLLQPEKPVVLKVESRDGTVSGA
# Rattus norvegicus [21] = assay: Ex vivo receptor occupancy at VLA4 in rat at 1 mg/kg, po after 8 hrs by [125I]- -(S)-2-((2S,4R)-4-(azetidin-1-yl)-1-(3-iodophenylsulfonyl)pyrrolidine-2-carboxamido)-3-(4-(3,5-dichloroisonicotinamido)phenyl)propanoic acid competitive binding assay; type: functional
# [22] = Half life in rhesus monkey at 0.75 mg/kg, iv; type: ADME, organism-based, Macaca mulatta; parameters: dose 0.75 mg/kg, route intravenous; conditions: in vivo
# Canis familiaris [23] = assay: Tmin in dog at 0.75 mg/kg, iv; type: ADME, organism-based, Canis lupus familiaris; parameters: dose 0.75 mg/kg, route intravenous; conditions: in vivo
# [24] = Half life in dog at 0.75 mg/kg, iv; type: ADME, organism-based, Canis lupus familiaris; parameters: dose 0.75 mg/kg, route intravenous; conditions: in vivo
# Rattus norvegicus [25] = assay: Ex vivo receptor occupancy at VLA4 in rat at 0.5 mg/kg, iv after 8 hrs by [125I]- -(S)-2-((2S,4R)-4-(azetidin-1-yl)-1-(3-iodophenylsulfonyl)pyrrolidine-2-carboxamido)-3-(4-(3,5-dichloroisonicotinamido)phenyl)propanoic acid competitive binding assay; type: functional
# Canis familiaris [26] = assay: Ex vivo receptor occupancy at VLA4 in dog at 0.75 mg/kg, iv after 8 hrs by [125I]- -(S)-2-((2S,4R)-4-(azetidin-1-yl)-1-(3-iodophenylsulfonyl)pyrrolidine-2-carboxamido)-3-(4-(3,5-dichloroisonicotinamido)phenyl)propanoic acid competitive binding assay; type: functional, Canis lupus familiaris
# [27] = Plasma Clearance in dog at 0.75 mg/kg, iv; type: ADME, organism-based, Canis lupus familiaris; parameters: dose 0.75 mg/kg, route intravenous
# [28] = Half life in rat at 0.5 mg/kg, iv; type: ADME, organism-based; parameters: dose 0.5 mg/kg, route intravenous; conditions: in vivo
# Rattus norvegicus [29] = assay: Tmin in rat at 0.5 mg/kg, iv; type: ADME, organism-based; parameters: dose 0.5 mg/kg, route intravenous; conditions: in vivo
# [30] = Plasma Clearance in rhesus monkey at 0.75 mg/kg, iv; type: ADME, organism-based, Macaca mulatta; parameters: dose 0.75 mg/kg, route intravenous
# Rhesus monkey [31] = assay: Tmin in rhesus monkey at 0.75 mg/kg, iv; type: ADME, organism-based, Macaca mulatta; parameters: dose 0.75 mg/kg, route intravenous; conditions: in vivo
# Rhesus monkey [32] = assay: Ex vivo receptor occupancy at VLA4 in rhesus monkey at 0.75 mg/kg, iv after 8 hrs by [125I]- -(S)-2-((2S,4R)-4-(azetidin-1-yl)-1-(3-iodophenylsulfonyl)pyrrolidine-2-carboxamido)-3-(4-(3,5-dichloroisonicotinamido)phenyl)propanoic acid competitive binding assay; type: functional, Macaca mulatta
# [33] = Plasma Clearance in rat at 0.5 mg/kg, iv; type: ADME, organism-based; parameters: dose 0.5 mg/kg, route intravenous
smiles,measurement,setting,value
O=C(Nc1ccc(C[C@H](NC(=O)[C@@H]2C[C@@H](N3CCCCC3)CN2S(=O)(=O)c2cc(Cl)cc(Cl)c2)C(=O)O)cc1)c1c(Cl)cncc1Cl,IC50,Integrin alpha-4 [1],0.09 nM
same,IC50,Integrin alpha-4 [2],0.3 nM
same,Activity,[3],89%
N[C@@H]1C[C@@H](C(=O)N[C@@H](Cc2ccc(NC(=O)c3c(Cl)cncc3Cl)cc2)C(=O)O)N(S(=O)(=O)c2cc(Cl)cc(Cl)c2)C1,Activity,[4],47%
same,IC50,Integrin alpha-4 [1],0.09 nM
same,IC50,Integrin alpha-4 [2],0.4 nM
O=C(Nc1ccc(C[C@H](NC(=O)[C@@H]2C[C@H](N3CCC3)CN2S(=O)(=O)c2cc(Cl)cc(Cl)c2)C(=O)O)cc1)c1c(Cl)cncc1Cl,Activity,[4],15%
same,IC50,Integrin alpha-4 [1],0.2 nM
N#Cc1cccc(S(=O)(=O)N2C[C@H](NC3CCC3)C[C@H]2C(=O)N[C@@H](Cc2ccc(NC(=O)c3c(Cl)cncc3Cl)cc2)C(=O)O)c1,IC90,Canis lupus familiaris,0.19 nM
same,IC90,[5],0.13 nM
same,Tmin,Canis familiaris [6],6 h
same,Activity,Canis familiaris [7],83%
same,Activity,Rattus norvegicus [8],67%
same,Tmin,Rattus norvegicus [9],0 h
same,Tmin,Rhesus monkey [10],0 h
same,half-life,[11],1 h
same,half-life,[12],0.5 h
same,IC90,Rattus norvegicus [13],0.4 nM
same,half-life,[14],1.1 h
same,CL/F,[15],33 mL/min/kg
same,Activity,Rhesus monkey [16],88%
same,Stability,Liver microsomes [17],56 pmol/mg
same,CL/F,[18],29 mL/min/kg
same,Stability,Liver microsomes [19],39 pmol/mg
same,IC90,Macaca mulatta,0.21 nM
same,Activity,[3],64%
same,CL/F,[20],65 mL/min/kg
CCOC(=O)[C@H](Cc1ccc(NC(=O)c2c(Cl)cncc2Cl)cc1)NC(=O)[C@@H]1C[C@@H](NC2CCC2)CN1S(=O)(=O)c1cccc(C#N)c1,IC50,Cytochrome P450 3A4,1700 nM
same,Tmin,Canis familiaris [6],12 h
same,Activity,Canis familiaris [7],97%
same,Activity,Rattus norvegicus [8],77%
same,Tmin,Rattus norvegicus [9],0 h
same,Tmin,Rhesus monkey [10],0 h
same,Activity,Rhesus monkey [16],95%
O=C(Nc1ccc(C[C@H](NC(=O)[C@@H]2C[C@@H](NC3CCC3)CN2S(=O)(=O)c2cc(Cl)cc(Cl)c2)C(=O)O)cc1)c1c(Cl)cncc1Cl,IC50,Integrin alpha-4 [1],0.1 nM
same,IC50,Integrin alpha-4 [2],0.1 nM
same,Activity,[3],82%
CCOC(=O)[C@H](Cc1ccc(NC(=O)c2c(Cl)cncc2Cl)cc1)NC(=O)[C@@H]1C[C@@H](NC2CCC2)CN1S(=O)(=O)c1cc(Cl)cc(Cl)c1,IC50,Cytochrome P450 3A4,< 400 nM
same,Activity,Rattus norvegicus [21],51%
CCOC(=O)[C@H](Cc1ccc(NC(=O)c2c(Cl)cncc2Cl)cc1)NC(=O)[C@@H]1C[C@@H](N2CCC2)CN1S(=O)(=O)c1cc(Cl)cc(Cl)c1,Activity,Rattus norvegicus [21],62%
O=C(Nc1ccc(C[C@H](NC(=O)[C@@H]2C[C@@H](N3CCC3)CN2S(=O)(=O)c2cc(Cl)cc(Cl)c2)C(=O)O)cc1)c1c(Cl)cncc1Cl,half-life,[22],1.1 h
same,Tmin,Canis familiaris [23],1 h
same,half-life,[24],0.5 h
same,Activity,Rattus norvegicus [25],64%
same,Activity,Canis familiaris [26],72%
same,clearance,[27],29 mL/min/kg
same,half-life,[28],1 h
same,Tmin,Rattus norvegicus [29],2 h
same,clearance,[30],33 mL/min/kg
same,IC50,Integrin alpha-4 [1],0.08 nM
same,Activity,Rattus norvegicus [21],46%
same,IC50,Integrin alpha-4 [2],0.2 nM
same,Tmin,Rhesus monkey [31],6 h
same,Activity,Rhesus monkey [32],87%
same,Activity,[3],77%
same,clearance,[33],65 mL/min/kg
C[C@@]1(C(=O)N[C@@H](Cc2ccc(NC(=O)c3c(Cl)cncc3Cl)cc2)C(=O)O)CCCN1S(=O)(=O)c1cc(Cl)cc(Cl)c1,IC50,Integrin alpha-4 [1],0.11 nM
same,IC50,Integrin alpha-4 [2],49 nM
O=C(Nc1ccc(C[C@H](NC(=O)[C@@H]2C[C@@H](N3CCCC3)CN2S(=O)(=O)c2cc(Cl)cc(Cl)c2)C(=O)O)cc1)c1c(Cl)cncc1Cl,IC50,Integrin alpha-4 [1],0.1 nM
same,IC50,Integrin alpha-4 [2],0.2 nM
same,Activity,[3],82%
O=C(Nc1ccc(C[C@H](NC(=O)[C@@H]2CCCN2S(=O)(=O)c2cc(Cl)cc(Cl)c2)C(=O)O)cc1)c1c(Cl)cncc1Cl,Activity,[4],62%
same,IC50,Integrin alpha-4 [1],0.07 nM
same,IC50,Integrin alpha-4 [2],1.5 nM
